Experimental data from the NIST ThermoML archive (doi:10.1021/je700521t).
± gives the expanded uncertainty stated by the source.

Legend:
[1] = 101.33 kPa, Liquid; for viscosity: Falling or rolling sphere viscometry
[2] = refractive index (Na D-line) (dimensionless); details: 101.33 kPa, Liquid

CCCCn1cc[n+](C)c1.[O-][Cl+3]([O-])([O-])[O-] [1-butyl-3-methylimidazolium perchlorate]
Details | refractive index, [2] | viscosity, [1] [mPa·s]
283.15 K | 1.4763 ± 0.0012 | 466.36 ± 37
288.15 K | 1.4751 ± 0.0012 | 330.8 ± 23
293.15 K | 1.474 ± 0.0012 | 241.56 ± 14
298.15 K | 1.4725 ± 0.0012 | 180.26 ± 9.5
303.15 K | 1.4712 ± 0.0012 | 137.85 ± 7
308.15 K | 1.4696 ± 0.0012 | 107.28 ± 5.5
313.15 K | 1.4685 ± 0.0012 | 85.75 ± 4.8
318.15 K | 1.4667 ± 0.0012 | 69.52 ± 4.5
323.15 K | 1.4655 ± 0.0012 | 57.22 ± 4.3
328.15 K | 1.4642 ± 0.0012 | 47.78 ± 4.2
333.15 K | 1.4627 ± 0.0012 | 39.9 ± 4.1
338.15 K | 1.4615 ± 0.0012 | 34.14 ± 4.1
343.15 K | 1.4602 ± 0.0012 | 29.49 ± 4.1
348.15 K | 1.459 ± 0.0012 | 25.74 ± 4.1
353.15 K | 1.4577 ± 0.0012 | 22.64 ± 4

[1], Vibrating tube method
Details | mass density [kg/m3]
283.15 K | 1263.5 ± 8.7
288.15 K | 1259.9 ± 8.6
293.15 K | 1256.2 ± 8.6
298.15 K | 1252.7 ± 8.5
303.15 K | 1249.2 ± 8.5
308.15 K | 1245.7 ± 8.5
313.15 K | 1242.2 ± 8.4
318.15 K | 1238.8 ± 8.4
323.15 K | 1235.3 ± 8.3
328.15 K | 1231.9 ± 8.3
333.15 K | 1228.4 ± 8.2
338.15 K | 1225 ± 8.2
343.15 K | 1221.6 ± 8.1
348.15 K | 1218.2 ± 8.1
353.15 K | 1214.8 ± 8

CCCCCCCC[n+]1ccn(C)c1.F[B-](F)(F)F [1-methyl-3-octylimidazolium tetrafluoroborate]
Details | mass density, [1] [kg/m3] | refractive index, [2] | viscosity, [1] [mPa·s]
283.15 K | 1124.9 ± 1.7 | 1.4363 ± 0.0008 | 1037 ± 110
288.15 K | 1121.4 ± 1.7 | 1.435 ± 0.0008 | 718.75 ± 66
293.15 K | 1117.9 ± 1.6 | 1.4336 ± 0.0008 | 462.9 ± 36
298.15 K | 1114.4 ± 1.6 | 1.4322 ± 0.0008 | 334.17 ± 22
303.15 K | 1110.9 ± 1.6 | 1.431 ± 0.0008 | 246.18 ± 14
308.15 K | 1107.5 ± 1.6 | 1.4288 ± 0.0008 | 191.95 ± 9.3
313.15 K | 1104.1 ± 1.6 | 1.4271 ± 0.0008 | 147.92 ± 6.7
318.15 K | 1100.7 ± 1.5 | 1.426 ± 0.0008 | 116.38 ± 5.3
323.15 K | 1097.3 ± 1.5 | 1.425 ± 0.0008 | 91.95 ± 4.5
328.15 K | 1093.9 ± 1.5 | 1.4235 ± 0.0008 | 74.79 ± 4.2
333.15 K | 1090.6 ± 1.5 | 1.4222 ± 0.0008 | 60.95 ± 4.1
338.15 K | 1087.2 ± 1.5 | 1.421 ± 0.0008 | 50.88 ± 4
343.15 K | 1083.9 ± 1.5 | 1.4195 ± 0.0008 | 42.06 ± 4
348.15 K | 1080.5 ± 1.5 | 1.418 ± 0.0008 | 35.78 ± 4
353.15 K | 1077.2 ± 1.4 | 1.4167 ± 0.0008 | 30.11 ± 4
358.15 K | 1073.8 ± 1.4 | 1.4155 ± 0.0008 | 25.87 ± 4
363.15 K | 1070.5 ± 1.4 | 1.4142 ± 0.0008 | 21.57 ± 4
